{
  "source": "patent US20130072470A1",
  "about": "(ABBVIE INC., priority 2011, published 2013)",
  "data": [
    {"molecular_target": "T1, Jak3 enzyme (aa 811-1103) (Homo sapiens, UniProt P52333)", "T1 construct": "Jak3 enzyme (aa 811-1103); expressed in SF9 cells as a GST fusion; GST; made in house; host or cells: SF9 insect cells", "T1 sequence (P52333 811-1103)": "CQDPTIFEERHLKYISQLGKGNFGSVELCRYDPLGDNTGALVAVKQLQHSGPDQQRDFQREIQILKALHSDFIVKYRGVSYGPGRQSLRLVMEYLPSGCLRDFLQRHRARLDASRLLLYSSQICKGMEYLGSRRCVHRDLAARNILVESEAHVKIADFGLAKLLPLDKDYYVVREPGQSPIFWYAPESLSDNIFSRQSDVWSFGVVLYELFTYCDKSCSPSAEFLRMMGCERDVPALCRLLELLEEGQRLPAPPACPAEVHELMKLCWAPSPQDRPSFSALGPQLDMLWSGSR", "experiment": "In vitro Jak3 kinase activity measured by time-resolved fluorescence resonance energy transfer (trFRET)", "format": "biochemical", "conditions": "ATP 0.001 mM", "procedure": "(§1) In Vitro Jak3 Kinase Activity Measured by Time-Resolved Fluorescence Resonance Energy Transfer (trFRET)\n(§2) Varying concentrations of inhibitor were added to an assay well containing: Jak3 enzyme (aa 811-1103; expressed in SF9 cells as a GST fusion and purified by glutathione affinity chromatography; 3 nM), peptide substrate (biotin-TYR2, Sequence: Biotin-(Ahx)-AEEEYFFLFA-amide; 2 μM), MOPSO pH 6.5 (50 mM), MgCl2 (10 mM), MnCl2 (2 mM), DTT (2.5 mM), BSA (0.01% w/v), Na3VO4 (0.1 mM) and ATP (0.001 mM). After about 60 min incubation at rt, the reaction was quenched by addition of EDTA (final concentration: 100 mM) and developed by addition of revelation reagents (final approximate concentrations: 30 mM HEPES pH 7.0, 0.06% BSA, 0.006% Tween-20, 0.24 M KF, 80 ng/mL PT66K (europium labeled anti-phosphotyrosine antibody cat #61T66KLB Cisbio, Bedford, Mass.) and 0.8 μg/mL SAXL (Phycolink streptavidin-allophycocyanin acceptor, cat #PJ52S, Prozyme, San Leandro, Calif.). The developed reaction was incubated in the dark either at about 4° C., for about 14 h or for about 60 min at rt, then read via a time-resolved fluorescence detector (Rubystar, BMG) using a 337 nm laser for excitation and emission wavelength of 665 nm. Within the linear range of the assay, the observed signal at 665 nm is directly related to phosphorylated product and used to calculate the IC50 values.", "units": {"IC50": "µM"}, "values": [
      {"smiles": "CC[C@@H]1C[C@@H](C(=O)NCC(F)(F)F)C[C@@H]1c1nnc2cnc3[nH]ccc3n12", "note": "[Example #6, (1R,3R,4S)-3-ethyl-4-(6H-pyrrolo[2,3-e][1,2,4]triazolo[4,3-a]pyrazin-1-yl)-N-(2,2,2-trifluoroethyl)cyclopentanecarboxamide]", "IC50": "> 10"},
      {"smiles": "C[C@@H]1C[C@H](CCC#N)C[C@@H]1c1nnc2cnc3[nH]ccc3n12", "note": "[Example #9, 3-((1S,3R,4S)-3-methyl-4-(6H-pyrrolo[2,3-e][1,2,4]triazolo[4,3-a]pyrazin-1-yl)cyclopentyl)propanenitrile]", "IC50": "> 10"},
      {"smiles": "C[C@@H]1C[C@H](N(C)C(=O)c2cocn2)C[C@@H]1c1cnc2cnc3[nH]ccc3n12", "note": "[Example #3, N-((1S,3S,4R)-3-(3H-imidazo[1,2-a]pyrrolo[2,3-e]pyrazin-8-yl)-4-methylcyclopentyl)-N-methyloxazole-4-carboxamide]", "IC50": "1 to 10"},
      {"smiles": "CC[C@@H]1CN(C(=O)NCC(C)(F)F)C[C@@H]1c1cnc2cnc3[nH]ccc3n12", "note": "[Example #16, (3S,4R)—N-(2,2-difluoropropyl)-3-ethyl-4-(3H-imidazo[1,2-a]pyrrolo[2,3-e]pyrazin-8-yl)pyrrolidine-1-carboxamide]", "IC50": "> 10"},
      {"smiles": "C[C@@H]1CN(C(=O)CC2CC2)C[C@@H]1c1cnc2cnc3[nH]ccc3n12", "note": "[Example #21, 1-((3R,4S)-3-(3H-imidazo[1,2-a]pyrrolo[2,3-e]pyrazin-8-yl)-4-methylpyrrolidin-1-yl)-2-cyclopropylethanone]", "IC50": "1 to 10"},
      {"smiles": "CC[C@@H]1C[C@H](NC(=O)c2coc(C)n2)C[C@@H]1c1nnc2cnc3[nH]ccc3n12", "note": "[Example #24, N-((1S,3R,4S)-3-ethyl-4-(6H-pyrrolo[2,3-e][1,2,4]triazolo[4,3-a]pyrazin-1-yl)cyclopentyl)-2-methyloxazole-4-carboxamide]", "IC50": "1 to 10"},
      {"smiles": "C[C@@H]1CN(C(=O)NCC(F)F)C[C@@H]1c1cnc2cnc3[nH]ccc3n12", "note": "[Example 09, (3R,4S)—N-(2,2-difluoroethyl)-3-(3H-imidazo[1,2-a]pyrrolo[2,3-e]pyrazin-8-yl)-4-methylpyrrolidine-1-carboxamide]", "IC50": "1 to 10"},
      {"smiles": "C[C@@H]1C[C@H](NC(=O)c2cccnn2)C[C@@H]1c1cnc2cnc3[nH]ccc3n12", "note": "[Example #2, N-((1S,3S,4R)-3-(3H-imidazo[1,2-a]pyrrolo[2,3-e]pyrazin-8-yl)-4-methylcyclopentyl)pyridazine-3-carboxamide]", "IC50": "> 10"},
      {"smiles": "CC[C@@H]1CN(C(=O)NC2CCC2)C[C@@H]1c1cnc2cnc3[nH]ccc3n12", "note": "[Example #17, (3S,4R)—N-cyclobutyl-3-ethyl-4-(3H-imidazo[1,2-a]pyrrolo[2,3-e]pyrazin-8-yl)pyrrolidine-1-carboxamide]", "IC50": "> 10"}
    ]},
    {"molecular_target": "T1, Jak3 enzyme (aa 811-1103)", "experiment": "In vitro Jak3 kinase activity measured by time-resolved fluorescence resonance energy transfer (trFRET)", "format": "biochemical", "conditions": "ATP 0.001 mM, Table B", "procedure": "as §1, §2", "units": {"IC50": "µM"}, "values": [
      {"smiles": "CC[C@@H]1C[C@H](NC(=O)Cc2coc3ccccc23)C[C@@H]1c1nnc2cnc3[nH]ccc3n12", "note": "[compound 41, 2-(benzofuran-3-yl)-N-((1S,3R,4S)-3-ethyl-4-(6H-pyrrolo[2,3-e][1,2,4]triazolo[4,3-a]pyrazin-1-yl)cyclopentyl)acetamide]", "IC50": "1 to 10"},
      {"smiles": "CC[C@@H]1C[C@H](NC(=O)CCc2cc(OC)no2)C[C@@H]1c1nnc2cnc3[nH]ccc3n12", "note": "[compound 36, N-((1S,3R,4S)-3-ethyl-4-(6H-pyrrolo[2,3-e][1,2,4]triazolo[4,3-a]pyrazin-1-yl)cyclopentyl)-3-(3-methoxyisoxazol-5-yl)propanamide]", "IC50": "1 to 10"},
      {"smiles": "CC[C@@H]1C[C@H](NC(=O)c2cc(-c3ccco3)on2)C[C@@H]1c1nnc2cnc3[nH]ccc3n12", "note": "[compound 73, N-((1S,3R,4S)-3-ethyl-4-(6H-pyrrolo[2,3-e][1,2,4]triazolo[4,3-a]pyrazin-1-yl)cyclopentyl)-5-(furan-2-yl)isoxazole-3-carboxamide]", "IC50": "< 1"},
      {"smiles": "CC[C@@H]1C[C@H](NC(=O)C(CC2CC2)NC(C)=O)C[C@@H]1c1nnc2cnc3[nH]ccc3n12", "note": "(stereo partly drawn) [compound 31, 2-acetamido-3-cyclopropyl-N-((1S,3R,4S)-3-ethyl-4-(6H-pyrrolo[2,3-e][1,2,4]triazolo[4,3-a]pyrazin-1-yl)cyclopentyl)propanamide]", "IC50": "> 10"},
      {"smiles": "CC[C@@H]1C[C@H](NC(=O)c2cc(C3CC3)on2)C[C@@H]1c1nnc2cnc3[nH]ccc3n12", "note": "[compound 59, 5-cyclopropyl-N-((1S,3R,4S)-3-ethyl-4-(6H-pyrrolo[2,3-e][1,2,4]triazolo[4,3-a]pyrazin-1-yl)cyclopentyl)isoxazole-3-carboxamide]", "IC50": "1 to 10"},
      {"smiles": "CC[C@@H]1C[C@H](NC(=O)/C=C/c2ccc(C)o2)C[C@@H]1c1nnc2cnc3[nH]ccc3n12", "note": "[compound 25, (E)-N-((1S,3R,4S)-3-ethyl-4-(6H-pyrrolo[2,3-e][1,2,4]triazolo[4,3-a]pyrazin-1-yl)cyclopentyl)-3-(5-methylfuran-2-yl)acrylamide]", "IC50": "1 to 10"},
      {"smiles": "CC[C@@H]1C[C@H](NC(=O)c2c(C)oc3c2CCCC3)C[C@@H]1c1nnc2cnc3[nH]ccc3n12", "note": "[compound 35, N-((1S,3R,4S)-3-ethyl-4-(6H-pyrrolo[2,3-e][1,2,4]triazolo[4,3-a]pyrazin-1-yl)cyclopentyl)-2-methyl-4,5,6,7-tetrahydrobenzofuran-3-carboxamide]", "IC50": "1 to 10"},
      {"smiles": "CC[C@@H]1C[C@H](NC(=O)c2cocn2)C[C@@H]1c1nnc2cnc3[nH]ccc3n12", "note": "[compound 63, N-((1S,3R,4S)-3-ethyl-4-(6H-pyrrolo[2,3-e][1,2,4]triazolo[4,3-a]pyrazin-1-yl)cyclopentyl)oxazole-4-carboxamide]", "IC50": "1 to 10"},
      {"smiles": "CC[C@@H]1C[C@H](NC(=O)CCC2(C)CC2)C[C@@H]1c1nnc2cnc3[nH]ccc3n12", "note": "[compound 44, N-((1S,3R,4S)-3-ethyl-4-(6H-pyrrolo[2,3-e][1,2,4]triazolo[4,3-a]pyrazin-1-yl)cyclopentyl)-3-(1-methylcyclopropyl)propanamide]", "IC50": "1 to 10"},
      {"smiles": "CC[C@@H]1C[C@H](NC(=O)c2cc3ccccc3o2)C[C@@H]1c1nnc2cnc3[nH]ccc3n12", "note": "[compound 57, N-((1S,3R,4S)-3-ethyl-4-(6H-pyrrolo[2,3-e][1,2,4]triazolo[4,3-a]pyrazin-1-yl)cyclopentyl)benzofuran-2-carboxamide]", "IC50": "1 to 10"},
      {"smiles": "CC[C@@H]1C[C@H](NC(=O)c2ncoc2C2CC2)C[C@@H]1c1nnc2cnc3[nH]ccc3n12", "note": "[compound 47, 5-cyclopropyl-N-((1S,3R,4S)-3-ethyl-4-(6H-pyrrolo[2,3-e][1,2,4]triazolo[4,3-a]pyrazin-1-yl)cyclopentyl)oxazole-4-carboxamide]", "IC50": "> 10"},
      {"smiles": "CC[C@@H]1C[C@H](NC(=O)Cc2cc(C)no2)C[C@@H]1c1nnc2cnc3[nH]ccc3n12", "note": "[compound 55, N-((1S,3R,4S)-3-ethyl-4-(6H-pyrrolo[2,3-e][1,2,4]triazolo[4,3-a]pyrazin-1-yl)cyclopentyl)-2-(3-methylisoxazol-5-yl)acetamide]", "IC50": "1 to 10"},
      {"smiles": "CC[C@@H]1C[C@H](NC(=O)c2cc(C)no2)C[C@@H]1c1nnc2cnc3[nH]ccc3n12", "note": "[compound 62, N-((1S,3R,4S)-3-ethyl-4-(6H-pyrrolo[2,3-e][1,2,4]triazolo[4,3-a]pyrazin-1-yl)cyclopentyl)-3-methylisoxazole-5-carboxamide]", "IC50": "1 to 10"},
      {"smiles": "CC[C@@H]1C[C@H](NC(=O)CCC2CCCCC2=O)C[C@@H]1c1nnc2cnc3[nH]ccc3n12", "note": "(stereo partly drawn) [compound 70, N-((1S,3R,4S)-3-ethyl-4-(6H-pyrrolo[2,3-e][1,2,4]triazolo[4,3-a]pyrazin-1-yl)cyclopentyl)-3-(2-oxocyclohexyl)propanamide]", "IC50": "> 10"}
    ]}
  ]
}
